Reference: PMC5218480 (PLoS ONE, 2017)

Tested on: MV-4-11 cells
Assay: Gene expression microarray analysis (Affymetrix PrimeView) and GSEA
Assay type: cell-based, human
Design: RFU PODN (11730768_x_at) / Fold change /veh PODN (11730768_x_at) / RFU LINC00158 (11744669_a_at) / Fold change /veh LINC00158 (11744669_a_at) / RFU DUSP10 (11751237_a_at) / Fold change /veh DUSP10 (11751237_a_at) / RFU ID3 (11757404_x_at) / Fold change /veh ID3 (11757404_x_at) / RFU PLEKHG5 (11737974_s_at) / Fold change /veh PLEKHG5 (11737974_s_at) / RFU LRRC4B (11730491_at) / Fold change /veh LRRC4B (11730491_at) / RFU GIMAP4 (11747438_a_at) / Fold change /veh GIMAP4 (11747438_a_at) / RFU KRT8 (11758183_x_at) / Fold change /veh KRT8 (11758183_x_at) / RFU CNN1 (11734310_a_at) / Fold change /veh CNN1 (11734310_a_at) / RFU VPS37D (11726825_at) / Fold change /veh VPS37D (11726825_at) / RFU C10orf10 (11716522_x_at) / Fold change /veh C10orf10 (11716522_x_at) / RFU KIR2DL2 /// KIR2DL4 /// KIR2DL5A /// KIR2DL5B /// KIR2DS1 /// KIR2DS2 /// KIR2DS3 /// KIR2DS4 /// KIR3DL3 /// KIR3DL3 /// KIR3DS1 (11738374_at) / Fold change /veh KIR2DL2 /// KIR2DL4 /// KIR2DL5A /// KIR2DL5B /// KIR2DS1 /// KIR2DS2 /// KIR2DS3 /// KIR2DS4 /// KIR3DL3 /// KIR3DL3 /// KIR3DS1 (11738374_at) / RFU C1QL1 (11718748_at) / Fold change /veh C1QL1 (11718748_at) / RFU TMPRSS4 (11747572_a_at) / Fold change /veh TMPRSS4 (11747572_a_at) / RFU HAMP (11756126_x_at) / Fold change /veh HAMP (11756126_x_at) / RFU RNFT2 (11725882_a_at) / Fold change /veh RNFT2 (11725882_a_at) / RFU NR4A2 (11747474_a_at) / Fold change /veh NR4A2 (11747474_a_at) / RFU ABCC12 (11746883_a_at) / Fold change /veh ABCC12 (11746883_a_at) / RFU TMEM136 (11760407_x_at) / Fold change /veh TMEM136 (11760407_x_at) / RFU CLDN22 /// WWC2 (11732394_at) / Fold change /veh CLDN22 /// WWC2 (11732394_at) / RFU HLA-DPB1 (11760878_x_at) / Fold change /veh HLA-DPB1 (11760878_x_at) / RFU SPINT1 (11716480_a_at) / Fold change /veh SPINT1 (11716480_a_at) / RFU GAP43 (11754022_s_at) / Fold change /veh GAP43 (11754022_s_at) / RFU A4GNT (11735810_at) / Fold change /veh A4GNT (11735810_at) / RFU PRB3 (11715151_x_at) / Fold change /veh PRB3 (11715151_x_at) / RFU TUBB4B (11761932_at) / Fold change /veh TUBB4B (11761932_at) / RFU CAPN14 (11732068_a_at) / Fold change /veh CAPN14 (11732068_a_at) / RFU TMCC2 (11721928_a_at) / Fold change /veh TMCC2 (11721928_a_at) / RFU IRGQ (11745062_a_at) / Fold change /veh IRGQ (11745062_a_at) / RFU FAM174B (11720279_a_at) / Fold change /veh FAM174B (11720279_a_at) / RFU TMPRSS4 (11748680_a_at) / Fold change /veh TMPRSS4 (11748680_a_at) / RFU FAM212B (11763350_a_at) / Fold change /veh FAM212B (11763350_a_at) / RFU PLEKHG5 (11743358_a_at) / Fold change /veh PLEKHG5 (11743358_a_at) / RFU ZSCAN30 (11745921_a_at) / Fold change /veh ZSCAN30 (11745921_a_at) / RFU CMKLR1 (11741424_a_at) / Fold change /veh CMKLR1 (11741424_a_at) / RFU LOC101060620 /// MAPK8IP1 (11723275_at) / Fold change /veh LOC101060620 /// MAPK8IP1 (11723275_at) / RFU SPTSSB (11747773_x_at) / Fold change /veh SPTSSB (11747773_x_at) / RFU PRSS12 (11739890_at) / Fold change /veh PRSS12 (11739890_at) / RFU BIN1 (11741810_x_at) / Fold change /veh BIN1 (11741810_x_at) / RFU WNT11 (11732464_a_at) / Fold change /veh WNT11 (11732464_a_at) / RFU C10orf10 (11716521_a_at) / Fold change /veh C10orf10 (11716521_a_at) / RFU C5orf56 (11738089_at) / Fold change /veh C5orf56 (11738089_at) / RFU CYB561 (11721691_x_at) / Fold change /veh CYB561 (11721691_x_at) / RFU ANKRD19P (11752326_a_at) / Fold change /veh ANKRD19P (11752326_a_at) / RFU OR2T12 /// OR2T33 /// OR2T8 (11738714_s_at) / Fold change /veh OR2T12 /// OR2T33 /// OR2T8 (11738714_s_at) / RFU VCAN (11748164_a_at) / Fold change /veh VCAN (11748164_a_at) / RFU JSRP1 (11732532_at) / Fold change /veh JSRP1 (11732532_at) / RFU KRTAP10-11 (11738290_x_at) / Fold change /veh KRTAP10-11 (11738290_x_at) / RFU MYO3A (11730013_a_at) / Fold change /veh MYO3A (11730013_a_at) / RFU EBF3 (11725865_a_at) / Fold change /veh EBF3 (11725865_a_at) / RFU CAMK2N1 (11719241_x_at) / Fold change /veh CAMK2N1 (11719241_x_at) / RFU C5orf56 (11738088_a_at) / Fold change /veh C5orf56 (11738088_a_at) / RFU OLFML3 (11715873_a_at) / Fold change /veh OLFML3 (11715873_a_at) / RFU LOC100653217 /// NTM (11731650_a_at) / Fold change /veh LOC100653217 /// NTM (11731650_a_at) / RFU MAPK11 (11762145_a_at) / Fold change /veh MAPK11 (11762145_a_at) / RFU FIZ1 (11724087_x_at) / Fold change /veh FIZ1 (11724087_x_at) / RFU OASL (11726364_x_at) / Fold change /veh OASL (11726364_x_at) / RFU SOX15 (11748057_x_at) / Fold change /veh SOX15 (11748057_x_at) / RFU CD79A (11719716_a_at) / Fold change /veh CD79A (11719716_a_at) / RFU HIST1H1D (11736915_at) / Fold change /veh HIST1H1D (11736915_at) / RFU CASKIN2 (11723855_a_at) / Fold change /veh CASKIN2 (11723855_a_at) / RFU LOC730098 (11760151_x_at) / Fold change /veh LOC730098 (11760151_x_at) / RFU OR4N2 (11742367_at) / Fold change /veh OR4N2 (11742367_at) / RFU PRRT2 (11749266_a_at) / Fold change /veh PRRT2 (11749266_a_at) / RFU SNX32 (11753110_a_at) / Fold change /veh SNX32 (11753110_a_at) / RFU CDHR5 (11726645_a_at) / Fold change /veh CDHR5 (11726645_a_at) / RFU RCAN1 (11760418_a_at) / Fold change /veh RCAN1 (11760418_a_at) / RFU FAM167A (11723789_a_at) / Fold change /veh FAM167A (11723789_a_at) / RFU FAM26E (11764081_at) / Fold change /veh FAM26E (11764081_at) / RFU ISYNA1 (11749810_s_at) / Fold change /veh ISYNA1 (11749810_s_at) / RFU ACY1 (11761880_at) / Fold change /veh ACY1 (11761880_at) / RFU 11764098_at / Fold change /veh 11764098_at / RFU SAMD14 (11745864_x_at) / Fold change /veh SAMD14 (11745864_x_at) / RFU NPB (11741838_a_at) / Fold change /veh NPB (11741838_a_at) / RFU TMPRSS6 (11731388_a_at) / Fold change /veh TMPRSS6 (11731388_a_at) / RFU KRTAP10-2 (11738614_at) / Fold change /veh KRTAP10-2 (11738614_at) / RFU ARHGAP8 /// PRR5-ARHGAP8 (11727945_x_at) / Fold change /veh ARHGAP8 /// PRR5-ARHGAP8 (11727945_x_at) / RFU KRTAP5-7 /// NADSYN1 (11734609_at) / Fold change /veh KRTAP5-7 /// NADSYN1 (11734609_at) / RFU RASL12 (11751679_a_at) / Fold change /veh RASL12 (11751679_a_at) / RFU CDKN2B (11736163_a_at) / Fold change /veh CDKN2B (11736163_a_at) / RFU PRF1 (11729649_at) / Fold change /veh PRF1 (11729649_at) / RFU, ZNF638 /// ZNF638-IT1 / Fold change vs veh, ZNF638 /// ZNF638-IT1 / RFU, PANK3 / Fold change vs veh, PANK3 / RFU, SH3YL1 / Fold change vs veh, SH3YL1 / RFU, ZEB2 / Fold change vs veh, ZEB2 / RFU, NRIP1 / Fold change vs veh, NRIP1 / RFU, PTTG1IP / Fold change vs veh, PTTG1IP / RFU, CAPN2 / Fold change vs veh, CAPN2 / RFU, MED14 / Fold change vs veh, MED14 / RFU, SNORA58 / Fold change vs veh, SNORA58 / RFU, C1orf63 / Fold change vs veh, C1orf63 / RFU, LRRFIP1 / Fold change vs veh, LRRFIP1 / RFU, NDUFAF7 / Fold change vs veh, NDUFAF7 / RFU, SLC12A2 / Fold change vs veh, SLC12A2 / RFU, IBTK / Fold change vs veh, IBTK / RFU, ESF1 / Fold change vs veh, ESF1 / Fold change vs veh, TMEM50B / RFU, TAOK1 / Fold change vs veh, TAOK1 / RFU, ACBD3 / Fold change vs veh, ACBD3 / RFU, TMA16 / Fold change vs veh, TMA16 / RFU, RWDD3 / Fold change vs veh, RWDD3 / RFU, BCAT1 / Fold change vs veh, BCAT1 / RFU, EDEM3 / Fold change vs veh, EDEM3 / RFU, TMEM33 / Fold change vs veh, TMEM33 / RFU, WDR75 / Fold change vs veh, WDR75 / RFU, AHCTF1 / Fold change vs veh, AHCTF1 / RFU, TFRC / Fold change vs veh, TFRC / RFU, ZDHHC17 / Fold change vs veh, ZDHHC17 / RFU, NOM1 / Fold change vs veh, NOM1 / RFU, ARL8B / Fold change vs veh, ARL8B / RFU, ZBTB11 / Fold change vs veh, ZBTB11 / RFU, TAMM41 / Fold change vs veh, TAMM41 / RFU, KIAA1704 /// LOC100996395 / Fold change vs veh, KIAA1704 /// LOC100996395 / RFU, ING1 / Fold change vs veh, ING1 / RFU, TRMT61B / Fold change vs veh, TRMT61B / RFU, FUBP3 / Fold change vs veh, FUBP3 / RFU, TP53 / Fold change vs veh, TP53 / RFU, TNKS2 / Fold change vs veh, TNKS2 / RFU, ZFP14 / Fold change vs veh, ZFP14 / RFU, ACTR2 / Fold change vs veh, ACTR2 / RFU, PPP3R1 / Fold change vs veh, PPP3R1 / RFU, PIK3R1 / Fold change vs veh, PIK3R1 / RFU, HNRNPA1 / Fold change vs veh, HNRNPA1 / RFU, RNF170 / Fold change vs veh, RNF170 / RFU, ZNF28 / Fold change vs veh, ZNF28 / RFU, RNGTT / Fold change vs veh, RNGTT / RFU, OGT / Fold change vs veh, OGT / RFU, BRD1 / Fold change vs veh, BRD1 / RFU, MARS / Fold change vs veh, MARS / RFU, ZNF655 / Fold change vs veh, ZNF655 / RFU, FAHD1 / Fold change vs veh, FAHD1 / RFU, BDP1 / Fold change vs veh, BDP1 / RFU, LRRCC1 / Fold change vs veh, LRRCC1 / RFU, ARID1A / Fold change vs veh, ARID1A / RFU, ZNF146 / Fold change vs veh, ZNF146 / RFU, ZNF330 / Fold change vs veh, ZNF330 / RFU, GPN3 / Fold change vs veh, GPN3 / RFU, C9orf123 / Fold change vs veh, C9orf123 / RFU, N4BP2L2 / Fold change vs veh, N4BP2L2 / RFU, ARFIP1 / Fold change vs veh, ARFIP1 / RFU, FAM179B / Fold change vs veh, FAM179B / RFU, BCL10 / Fold change vs veh, BCL10 / RFU, UHRF1BP1L / Fold change vs veh, UHRF1BP1L / RFU, BET1 / Fold change vs veh, BET1 / RFU, CNOT2 / Fold change vs veh, CNOT2 / RFU, ZNF268 / Fold change vs veh, ZNF268 / Fold change vs veh, ZNF507 / RFU, DGCR2 / Fold change vs veh, DGCR2 / RFU, WDSUB1 / Fold change vs veh, WDSUB1 / Fold change vs veh, HSP90B1 /// MIR3652 / RFU, ADSS / Fold change vs veh, ADSS / RFU, GK / Fold change vs veh, GK / RFU, ZNF148 / Fold change vs veh, ZNF148 / RFU, TAF9 / Fold change vs veh, TAF9 / RFU, SLC1A5 / Fold change vs veh, SLC1A5 / RFU, SLMO2 / Fold change vs veh, SLMO2 / RFU, ABCC4 / Fold change vs veh, ABCC4 / RFU, LOC101060439 /// RAP1B / Fold change vs veh, LOC101060439 /// RAP1B / RFU, RFX7 / Fold change vs veh, RFX7 / RFU, GTPBP10 / Fold change vs veh, GTPBP10 / RFU, CNEP1R1 / Fold change vs veh, CNEP1R1 / RFU, BIVM-ERCC5 /// ERCC5 / Fold change vs veh, BIVM-ERCC5 /// ERCC5 / RFU, ILF3 / Fold change vs veh, ILF3 / RFU 11762660_at / Fold change /veh 11762660_at / RFU VCAN (11757783_s_at) / Fold change /veh VCAN (11757783_s_at) / RFU DDX43 (11728927_at) / Fold change /veh DDX43 (11728927_at) / RFU KRT8 (11758188_x_at) / Fold change /veh KRT8 (11758188_x_at) / RFU NKD1 (11759106_at) / Fold change /veh NKD1 (11759106_at) / RFU SRD5A1 (11742802_a_at) / Fold change /veh SRD5A1 (11742802_a_at) / RFU TPSAB1 /// TPSB2 (11721975_s_at) / Fold change /veh TPSAB1 /// TPSB2 (11721975_s_at) / RFU GSTM3 (11746129_a_at) / Fold change /veh GSTM3 (11746129_a_at) / RFU IL23R (11737362_x_at) / Fold change /veh IL23R (11737362_x_at) / RFU TMEM51 (11727254_a_at) / Fold change /veh TMEM51 (11727254_a_at) / RFU PIWIL2 (11732686_x_at) / Fold change /veh PIWIL2 (11732686_x_at) / RFU ORM1 (11744905_x_at) / Fold change /veh ORM1 (11744905_x_at) / RFU CCDC152 (11743942_at) / Fold change /veh CCDC152 (11743942_at) / RFU ECM1 (11717891_a_at) / Fold change /veh ECM1 (11717891_a_at) / RFU IL23R (11748794_a_at) / Fold change /veh IL23R (11748794_a_at) / RFU TNFAIP8L3 (11732012_x_at) / Fold change /veh TNFAIP8L3 (11732012_x_at) / RFU MBOAT4 (11741988_at) / Fold change /veh MBOAT4 (11741988_at) / RFU 11764193_at / Fold change /veh 11764193_at / RFU TMEM53 (11763286_at) / Fold change /veh TMEM53 (11763286_at) / RFU MAGEB2 (11727129_at) / Fold change /veh MAGEB2 (11727129_at) / RFU TMEM200A (11744735_a_at) / Fold change /veh TMEM200A (11744735_a_at) / RFU CCDC152 (11751479_a_at) / Fold change /veh CCDC152 (11751479_a_at) / RFU FAM211A (11726209_a_at) / Fold change /veh FAM211A (11726209_a_at) / RFU RGS16 (11746705_a_at) / Fold change /veh RGS16 (11746705_a_at) / RFU VCAN (11755009_s_at) / Fold change /veh VCAN (11755009_s_at) / RFU RHOB (11743442_s_at) / Fold change /veh RHOB (11743442_s_at) / RFU RGS16 (11720943_a_at) / Fold change /veh RGS16 (11720943_a_at) / RFU RGS16 (11720944_at) / Fold change /veh RGS16 (11720944_at) / RFU, VPS4B / Fold change vs veh, VPS4B / RFU, CREB1 / Fold change vs veh, CREB1 / RFU, DNAJC13 / Fold change vs veh, DNAJC13 / RFU, GNAQ / Fold change vs veh, GNAQ / RFU, CDK5R1 / Fold change vs veh, CDK5R1 / RFU, ZRANB3 / Fold change vs veh, ZRANB3 / RFU, CUL4A / Fold change vs veh, CUL4A / RFU, CCNY / Fold change vs veh, CCNY / RFU, UFL1 / Fold change vs veh, UFL1 / RFU, COG3 / Fold change vs veh, COG3 / RFU, DIAPH2 / Fold change vs veh, DIAPH2 / RFU, SKA2 / Fold change vs veh, SKA2 / RFU, AFF3 / Fold change vs veh, AFF3 / RFU, LMF1 / Fold change vs veh, LMF1 / RFU, IPO11 / Fold change vs veh, IPO11 / RFU, DFFB / Fold change vs veh, DFFB / RFU, FOXP1 / Fold change vs veh, FOXP1 / RFU, CARD8 / Fold change vs veh, CARD8 / RFU, STRN3 / Fold change vs veh, STRN3 / RFU, ADK / Fold change vs veh, ADK / RFU, RASSF2 / Fold change vs veh, RASSF2 / RFU, WIPF1 / Fold change vs veh, WIPF1 / RFU, LARP1B / Fold change vs veh, LARP1B / RFU, RASA1 / Fold change vs veh, RASA1 / RFU, RB1 / Fold change vs veh, RB1 / RFU, PPFIA1 / Fold change vs veh, PPFIA1 / RFU, MAT2A / Fold change vs veh, MAT2A / RFU, CCT5 / Fold change vs veh, CCT5 / RFU, WDR92 / Fold change vs veh, WDR92 / RFU, CUX1 / Fold change vs veh, CUX1 / RFU, TTC7A / Fold change vs veh, TTC7A / RFU, TMEM135 / Fold change vs veh, TMEM135 / RFU, DEPTOR / Fold change vs veh, DEPTOR / RFU, CPM / Fold change vs veh, CPM / RFU, DNAJB6 / Fold change vs veh, DNAJB6 / RFU, CACNA2D3 / Fold change vs veh, CACNA2D3 / RFU, DTX4 / Fold change vs veh, DTX4 / RFU, TFCP2 / Fold change vs veh, TFCP2 / RFU, GMCL1 /// GMCL1P1 / Fold change vs veh, GMCL1 /// GMCL1P1 / RFU, AEBP2 / Fold change vs veh, AEBP2 / RFU, SNHG1 /// SNORD22 /// SNORD25 /// SNORD26 /// SNORD27 /// SNORD28 /// SNORD29 /// SNORD31 / Fold change vs veh, SNHG1 /// SNORD22 /// SNORD25 /// SNORD26 /// SNORD27 /// SNORD28 /// SNORD29 /// SNORD31 / Fold change (Aza/veh), C12orf56 (ProbeSet 11735607_a_at) / Fold change (ACY-1035/veh), C12orf56 (ProbeSet 11735607_a_at) / Fold change (Aza/veh), FGFR1OP (ProbeSet 11751329_s_at) / Fold change (ACY-1035/veh), FGFR1OP (ProbeSet 11751329_s_at) / Fold change (Aza/veh), VPS36 (ProbeSet 11739960_a_at) / Fold change (ACY-1035/veh), VPS36 (ProbeSet 11739960_a_at) / RFU SYPL1 (11715823_x_at) / Fold change /veh SYPL1 (11715823_x_at) / RFU IGFBP7 (11715501_s_at) / Fold change /veh IGFBP7 (11715501_s_at) / RFU REEP3 (11722064_at) / Fold change /veh REEP3 (11722064_at) / RFU IGLL1 (11728026_x_at) / Fold change /veh IGLL1 (11728026_x_at): dose or concentration left out as unconfirmed
Conditions: MV-4-11 cells, 48 hours

Nc1ncn([C@@H]2O[C@H](CO)[C@@H](O)[C@H]2O)c(=O)n1 [azacitidine]
RFU PRB3 (11715151_x_at): 8.00 RFU
